In patent US6458770B1, “Parenteral formulations comprising carbamazepine or its derivatives” (Novartis AG, priority 1997, dated 2002):

Assay: Solubility of the active agent in water
Type: physicochemical
Details: 25° C., pH of 5.8 to 6.0
Procedure: A wide range of container sizes may be employed. Container size may be conveniently categorised as Low-Volume, i.e. 100 ml or less and High-Volume, i.e. above 100 ml and typically 250 ml. […] parenteral formulations could of course be employed but this may require the use of an organic co-solvent or other solubilising aid which is less desirable than a totally water-based formulation.

A solubility in water of 3200 to 4200 µg/mL was found for `NC(=O)N1c2ccccc2CC(O)c2ccccc21` (stereo not shown) [COMPOUND A, 10-hydroxy-10,11-tetrahydrocarbamazepine] in this work.
